# According to article PMC4018390, “Important Role of CYP2J2 in Protein Kinase Inhibitor Degradation: A Possible Role in Intratumor Drug Disposition and Resistance” (PLoS ONE, 2014):
# Read-outs that look alike come from different tables or passages of the source.
# What was measured:
# [1] = system: CYP2J2; conditions: approved drugs identified as CYP2J2 inhibitors; cited from earlier work
# [2] = target: T1, CYP1A1 (Homo sapiens, UniProt P04798); assay: Michaelis-Menten kinetics of TKI metabolite production, cDNA expressed CYP1A1 microsomes; conditions: for Relative Intrinsic Clearance: Vmax/Km for production of the labelled metabolite, as fold difference of the intrinsic clearance of CYP3A4; for Km: read-out: Affinity Constant, Km, Km of the parent TKI for production of the labelled metabolite, 10 pmoles CYP, TKI 0.5-20 µM, 15 min
# T1 sequence (P04798 1-512): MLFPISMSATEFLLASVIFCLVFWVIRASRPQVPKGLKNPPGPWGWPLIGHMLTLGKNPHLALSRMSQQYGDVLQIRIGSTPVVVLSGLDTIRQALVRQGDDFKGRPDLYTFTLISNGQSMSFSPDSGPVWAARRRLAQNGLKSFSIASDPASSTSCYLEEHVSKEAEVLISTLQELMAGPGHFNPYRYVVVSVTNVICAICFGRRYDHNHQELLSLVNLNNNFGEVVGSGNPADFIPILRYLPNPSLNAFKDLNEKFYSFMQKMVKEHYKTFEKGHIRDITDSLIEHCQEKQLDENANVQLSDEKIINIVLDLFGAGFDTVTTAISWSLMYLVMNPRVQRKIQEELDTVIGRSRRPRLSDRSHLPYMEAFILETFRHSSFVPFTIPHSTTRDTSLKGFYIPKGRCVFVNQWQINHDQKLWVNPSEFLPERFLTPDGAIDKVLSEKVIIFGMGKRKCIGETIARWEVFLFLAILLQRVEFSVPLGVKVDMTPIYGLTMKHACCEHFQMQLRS
# [3] = target: T2, CYP1B1 (Homo sapiens, UniProt Q16678); assay: Michaelis-Menten kinetics of TKI metabolite production, cDNA expressed CYP1B1 microsomes; conditions: for Relative Intrinsic Clearance: Vmax/Km for production of the labelled metabolite, as fold difference of the intrinsic clearance of CYP3A4; for Km: read-out: Affinity Constant, Km, Km of the parent TKI for production of the labelled metabolite, 10 pmoles CYP, TKI 0.5-20 µM, 15 min
# T2 sequence (Q16678 1-543): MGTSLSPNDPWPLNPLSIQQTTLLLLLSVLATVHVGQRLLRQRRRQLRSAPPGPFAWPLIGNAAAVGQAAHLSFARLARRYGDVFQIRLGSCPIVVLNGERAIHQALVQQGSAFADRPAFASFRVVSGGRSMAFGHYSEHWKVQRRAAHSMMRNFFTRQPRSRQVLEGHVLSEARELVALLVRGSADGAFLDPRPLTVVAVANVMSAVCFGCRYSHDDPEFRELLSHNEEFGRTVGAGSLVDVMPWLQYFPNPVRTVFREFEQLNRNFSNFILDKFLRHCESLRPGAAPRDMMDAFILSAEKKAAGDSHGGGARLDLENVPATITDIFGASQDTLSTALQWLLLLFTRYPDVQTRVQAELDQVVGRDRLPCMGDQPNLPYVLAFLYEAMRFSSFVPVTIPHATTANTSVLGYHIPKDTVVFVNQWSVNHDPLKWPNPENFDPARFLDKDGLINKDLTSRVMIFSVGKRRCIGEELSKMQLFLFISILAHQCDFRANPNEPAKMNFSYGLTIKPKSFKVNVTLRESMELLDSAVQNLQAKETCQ
# [4] = target: T1, CYP1A1; assay: TKI disappearance in microsomal incubations with cDNA expressed CYP1A1; assay type: in vitro ADME; design: purchased BD Bioscience (Belgium), BD Gentest; host or cells: insect cells
# Method: (§1) The disappearance rate was calculated after 10 min (see Table 1 ) taking into account the percent of TKI removed from the incubation (0.25 nmole of TKI and 20 pmoles of CYP in 100 µL) and are expressed in (nmole of degraded TKI/(nanomole of CYP×min)).
# (§2) Protein pellets were discarded.
# [5] = target: T2, CYP1B1; assay: TKI disappearance in microsomal incubations with cDNA expressed CYP1B1; assay type: in vitro ADME; design: purchased BD Bioscience (Belgium), BD Gentest; host or cells: insect cells; conditions: TKI 2.5 µM at T = 0, first 10 minutes, 20 picomoles of CYP
# Method: as §1, §2
# [6] = target: T2, CYP1B1; assay: TKI disappearance in culture media of HepG2 cells infected with adenovirus expressing CYP1B1; conditions: up to 72 hours, result in words
# [7] = target: T3, CYP2J2 (Homo sapiens, UniProt P51589); conditions: 2.5 µM, pH 7.4; for Disappearance rate in microsomal incubations: 10 min; for TKI levels removed from incubations: 30 min
# T3 sequence (P51589 1-502): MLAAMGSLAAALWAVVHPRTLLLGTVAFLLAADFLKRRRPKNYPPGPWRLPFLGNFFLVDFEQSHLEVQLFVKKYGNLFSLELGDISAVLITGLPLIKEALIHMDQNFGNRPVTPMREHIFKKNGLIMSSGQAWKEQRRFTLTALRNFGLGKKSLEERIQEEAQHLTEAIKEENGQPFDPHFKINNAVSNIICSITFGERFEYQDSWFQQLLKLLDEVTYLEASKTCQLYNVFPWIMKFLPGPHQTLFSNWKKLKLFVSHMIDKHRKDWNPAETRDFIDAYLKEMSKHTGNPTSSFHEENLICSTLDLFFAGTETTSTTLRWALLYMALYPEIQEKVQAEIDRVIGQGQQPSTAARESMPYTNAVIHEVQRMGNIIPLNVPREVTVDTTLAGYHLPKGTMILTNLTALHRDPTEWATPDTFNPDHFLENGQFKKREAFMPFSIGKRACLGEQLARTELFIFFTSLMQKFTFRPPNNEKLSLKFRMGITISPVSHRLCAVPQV
# Method: as §1, §2
# [8] = target: T4, CYP3A4 (Homo sapiens, UniProt P08684); conditions: 2.5 µM, pH 7.4; for Disappearance rate in microsomal incubations: 10 min; for TKI levels removed from incubations: 30 min
# Method: as §1, §2
# [9] = target: T3, CYP2J2; assay: TKI disappearance in culture media of HepG2 cells infected with adenovirus expressing CYP2J2; conditions: up to 72 hours, result in words
# Source text: as §2
# [10] = target: T1, CYP1A1; conditions: read-out: Affinity Constant, Km, Km of the parent TKI (imatinib) for production of the labelled metabolite, values marked (*), previous published study ref 18; cited from earlier work
# [11] = target: T1, CYP1A1; conditions: HepG2 cells infected with CYP1A1 adenovirus; up to 72 hours; result in words
# Source text: as §2
# [12] = target: T1, CYP1A1; design: purchased BD Bioscience (Belgium), BD Gentest; host or cells: insect cells; method as in earlier work; conditions: compared with CYP1B1 and 3A4, ref 22 (Kamath et al.); cited from earlier work
# [13] = target: T2, CYP1B1; design: purchased BD Bioscience (Belgium), BD Gentest; host or cells: insect cells; method as in earlier work; conditions: compared with CYP1A1 and 3A4, ref 22 (Kamath et al.); cited from earlier work
# [14] = target: T4, CYP3A4; design: purchased BD Bioscience (Belgium), BD Gentest; host or cells: insect cells; method as in earlier work; conditions: compared with CYP1A1 and 1B1, ref 22 (Kamath et al.); cited from earlier work
# [15] = target: T3, CYP2J2; assay: Michaelis-Menten kinetics of TKI metabolite production, cDNA expressed CYP2J2 microsomes; conditions: for Km: read-out: Affinity Constant, Km, Km of the parent TKI for production of the labelled metabolite, 10 pmoles CYP, TKI 0.5-20 µM, 15 min
# [16] = target: T4, CYP3A4; assay: Michaelis-Menten kinetics of TKI metabolite production, cDNA expressed CYP3A4 microsomes; conditions: for Km: read-out: Affinity Constant, Km, CYP3A4, Km of the parent TKI for production of the labelled metabolite, 10 pmoles CYP, TKI 0.5-20 µM, 15 min
# [17] = CYP1A1, TKI 2.5 µM at T = 0, first 10 minutes, 20 picomoles of CYP
# T4 sequence (P08684 whole entry): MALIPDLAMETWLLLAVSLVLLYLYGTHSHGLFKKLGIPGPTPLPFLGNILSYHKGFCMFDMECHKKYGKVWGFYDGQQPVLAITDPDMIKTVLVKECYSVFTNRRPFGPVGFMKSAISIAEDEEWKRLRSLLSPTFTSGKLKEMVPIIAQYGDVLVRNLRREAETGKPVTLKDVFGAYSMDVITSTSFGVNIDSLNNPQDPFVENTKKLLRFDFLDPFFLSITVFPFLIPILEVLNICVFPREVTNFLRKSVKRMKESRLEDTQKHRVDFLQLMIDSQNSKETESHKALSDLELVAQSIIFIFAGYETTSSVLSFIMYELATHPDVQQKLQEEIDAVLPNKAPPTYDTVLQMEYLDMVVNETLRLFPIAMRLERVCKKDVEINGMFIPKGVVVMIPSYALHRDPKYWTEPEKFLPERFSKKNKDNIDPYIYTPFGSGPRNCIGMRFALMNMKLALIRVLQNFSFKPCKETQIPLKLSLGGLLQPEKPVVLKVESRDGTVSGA
compound,measurement,setting,value
C#C[C@]1(O)CC[C@H]2[C@@H]3CCC4=Cc5oncc5C[C@]4(C)[C@H]3CC[C@@]21C [danazol],CYP2J2 inhibition,[1],CYP2J2 inhibitors
"CCNCCNC(=O)c1c(C)[nH]c(/C=C2\C(=O)Nc3ccc(F)cc32)c1C [E-deethyl-sunitinib #1, E-deethyl-sunitinib]",Relative Intrinsic Clearance,[2],0.1 fold diff.
same,Km,[2],6.9 µM
same,Relative Intrinsic Clearance,[3],0.1 fold diff.
same,Km,[3],2.7 µM
"CNC(=O)c1cc(Oc2ccc(NC(=O)Nc3ccc(Cl)c(C(F)(F)F)c3)cc2)ccn1 [Sorafenib, sorafenib]",Disappearance rate in microsomal incubations,[4]; [17],0.4 nmoles of TKI degraded/(min×nmole of CYP)
same,Disappearance rate in microsomal incubations,[5],0.0 nmoles of TKI degraded/(min×nmole of CYP)
same,TKI removal from HepG2 cell culture media,[6],very slowly by CYP1B1
"Cc1cn(-c2cc(NC(=O)c3ccc(C)c(Nc4nccc(-c5cccnc5)n4)c3)cc(C(F)(F)F)c2)cn1 [Nilotinib, nilotinib]",Disappearance rate in microsomal incubations,[7],0.7 nmoles of TKI degraded/(min×nmole of CYP)
same,TKI levels removed from incubations,[7],more than 60%
same,Disappearance rate in microsomal incubations,[8],1.2 nmoles of TKI degraded/(min×nmole of CYP)
same,TKI levels removed from incubations,[8],more than 60%
same,TKI removal from HepG2 cell culture media,[9],mainly removed by CYP2J2
same,Disappearance rate in microsomal incubations,[4]; [17],0.2 nmoles of TKI degraded/(min×nmole of CYP)
same,Disappearance rate in microsomal incubations,[5],0.3 nmoles of TKI degraded/(min×nmole of CYP)
same,TKI removal from HepG2 cell culture media,[6],very slowly by CYP1B1
Fc1ccc(C(c2ccc(F)cc2)N2CCN(C/C=C/c3ccccc3)CC2)cc1 [flunarizine],CYP2J2 inhibition,[1],CYP2J2 inhibitors
Cc1ccc(NC(=O)c2ccc(CN3CCNCC3)cc2)cc1Nc1nccc(-c2cccnc2)n1 [N-demethyl-imatinib],Km,[10],7.6 µM
"CCNCCNC(=O)c1c(C)[nH]c(/C=C2\C(=O)Nc3ccc(F)cc32)c1C [Z-deethyl-sunitinib #2, Z-deethyl-sunitinib]",Relative Intrinsic Clearance,[2],0.2 fold diff.
same,Km,[2],6.7 µM
same,Relative Intrinsic Clearance,[3],0.1 fold diff.
"CCN(CC)CCNC(=O)c1c(C)[nH]c(/C=C2\C(=O)Nc3ccc(F)cc32)c1C [Sunitinib, sunitinib]",TKI removal from HepG2 cell culture media,[11],equal rate for CYP1A1 and 2J2
same,Disappearance rate in microsomal incubations,[4],0.6 nmoles of TKI degraded/(min×nmole of CYP)
same,Disappearance rate in microsomal incubations,[5],0.1 nmoles of TKI degraded/(min×nmole of CYP)
"Cc1nc(Nc2ncc(C(=O)Nc3c(C)cccc3Cl)s2)cc(N2CCN(CCO)CC2)n1 [Dasatinib, dasatinib]",Disappearance rate in microsomal incubations,[7],1.1 nmoles of TKI degraded/(min×nmole of CYP)
same,TKI levels removed from incubations,[7],more than 60%
same,Disappearance rate in microsomal incubations,[8],1.2 nmoles of TKI degraded/(min×nmole of CYP)
same,TKI levels removed from incubations,[8],more than 60%
same,TKI removal from HepG2 cell culture media,[11],CYP2J2>CYP1A1>CYP1B1
same,TKI removal from HepG2 cell culture media,[9],CYP2J2>CYP1A1>CYP1B1
same,Disappearance rate in microsomal incubations,[4]; [17],0.9 nmoles of TKI degraded/(min×nmole of CYP)
same,Disappearance rate in microsomal incubations,[5],1.0 nmoles of TKI degraded/(min×nmole of CYP)
same,Degradation in similar microsomal incubations,[12],comparable rate of disappearance
same,Degradation in similar microsomal incubations,[13],comparable rate of disappearance
same,Degradation in similar microsomal incubations,[14],comparable rate of disappearance
same,TKI removal from HepG2 cell culture media,[6],CYP2J2>CYP1A1>CYP1B1
N-oxide-nilotinib [NO-nilotinib #1],Km,[2],3 µM
same,Km,[15],0.8 µM
same,Km,[16],27.6 µM
Cc1nc(Nc2ncc(C(=O)Nc3c(C)cccc3Cl)s2)cc(N2CCNCC2)n1 [dehydroxyethyl-dasatinib],Relative Intrinsic Clearance,[2],0.5 fold diff.
same,Km,[2],4.7 µM
same,Relative Intrinsic Clearance,[3],1.1 fold diff.
same,Km,[3],2.2 µM
same,Relative Intrinsic Clearance,"[15]; Vmax/Km for production of the labelled metabolite, as fold difference of the intrinsic clearance of CYP3A4",0.5 fold diff.
same,Km,[15],3.9 µM
same,Relative Intrinsic Clearance,"[16]; CYP3A4 (reference, set to 1.0), Vmax/Km for production of the labelled metabolite",1.0 fold diff.
same,Km,[16],71.4 µM
CCCc1nc2c(C)cc(-c3nc4ccccc4n3C)cc2n1Cc1ccc(-c2ccccc2C(=O)O)cc1 [telmisartan],CYP2J2 inhibition,[1],CYP2J2 inhibitors
